From patent US5789395A, “Method of using tetracycline compounds for inhibition of endogenous nitric oxide production” (The Research Foundation of State University of New York, priority 1996, dated 1998)

Experiments:
renal mesangial cells = assay: NO production by IFN-γ/LPS-stimulated renal mesangial cells (Greiss reaction); type: cell-based, rat; conditions: for inhibition of NO production, time course: 24-72 hr; for Emax at 5 µg/mL: Rattus norvegicus, Mesangial cell, 5 μg/mL, 48 hr, P<0.01, read-out: inhibition of NO production, maximal effect
From the text: The use of IFN-γ to induce renal injury is a model of glomerulonephritis known in the art. Glomerulonephritis is characterized by increased production of NO.

collagenase = conditions: cited from earlier work
iNOS [1] = assay: iNOS activity (L-arginine-to-L-citrulline) in cell-free extracts of cells treated with modulator before LPS; type: cell-based, murine; conditions: positive control
Method: Murine macrophage cells (RAW 264.7) were incubated with 20-80 μg/mL doxycycline or minocycline, 10 μM hydrocortisone (Sigma Chemical Co., St. Louis, Mo.), or 75 μM L-NMMA for 1-2 h, followed by addition of LPS at 100 ng/mL and incubation for 16-18 h. Cell-free extracts were prepared at the end of each time period. Specific activity of iNOS was determined in the cell-free extracts by monitoring the conversion of L-[^3 H]-arginine to L-[^3 H]-citrulline as described by Amin et al. (1995b) and Vyas et al. (1996).
Cell-free extracts were prepared as follows: Following induction by incubation with LPS, the cells were pelleted at 4° C. and resuspended in Tris buffer (10 mM, pH 7.4) containing 10 μg/mL each chymostatin, antipain, leupeptin and pepstatin, 1 mM DTT and 1 mM PMSF. Cells were lysed in a Polytron PT 1200 homogenizer (Kinematica AG, Switzerland) after 3 cycles of rapid freeze-thawing. The lysate was centrifuged at 16,000 rpm for 60 min at 4° C., and the supernatants were used as cell-free extracts.
The protein in the extracts was measured by BCA assay reagent using BSA as standard (Smith et al. 1985). The reaction mixture for iNOS assay consists of Tris 50 mM (pH 7.8); BSA 1 mg/mL; DTT 1 mM; CaCl2, 2 mM; FAD 10 μM; BH4 10,μM; L-arginine 30 μM; NADPH 1 mM. The reaction mixture was spiked with 1μL (250 nM) of L-[^3 H]-arginine (Dupont NEN, Boston, Mass.) (1 mCi/mL=37.0 MBq/mL). After 20 min the assays were terminated by heating the reaction mixture at 90° C. for 5 min. Ten microiters (≈100,000 cpm) of the supernatant was spotted on activated AVICEL TLC plates (Analtech, Newark, Del.). The TLC plates were developed in a solvent system consisting of ethanol:water:ammonia (80:16:4). Quantitation of the spot for L-[^3 H]-citrulline was performed by a Bioscan System 200 Imaging Scanner.

NOS = conditions: competitive inhibitor; cited from earlier work
iNOS [2] = conditions: in vitro; Amin et al. 1995b; cited from earlier work
[3] = tested on: iNOS expression in mesangial cells; conditions: Pfeilschifter et al. (1995); cited from earlier work
133 kD iNOS = assay: iNOS protein expression in LPS-activated RAW 264.7 cells (Western blot); type: cell-based, murine; conditions: 10 μM, positive control
Method: RAW 264.7 cells were activated with 100 ng/mL LPS for 16-18 h, with and without doxycycline or minocycline (20-80 μg/mL) or with hydrocortisone (10 μM). Cell-free extracts were prepared as described above. The extract s were analyzed for 133 kD iNOS by Western blotting, using specific anti-iNOS antibodies.
Equal amounts of protein (25-50 μg) estimated by BCA reagent (Pierce, Rockford, Ill.) were loaded onto SDS-PAGE gels and stained to verify the concentrations of various protein fractions by examining the intensities of the protein bands on the gels. Western blot analysis was carried out from the same cell extracts. The Western-blotted membrane was probed with a specific anti-murine iNOS monoclonal antibody (Transduction Laboratories, Lexington, Ky.), as specified by the supplier. The same blot was also probed with an anti-actin antibody generously provided by Dr. James L. Lessard (Children's Hospital Medical Center, Cincinnati, Ohio). The blots were developed using the ECL Western blot system (Amersham, Arlington Heights, Ill.). Quantitation of the bands was performed using a densitometer from Molecular Dynamics (Sunnyvale, Calif.). FIG. 5 is representative.

iNOS mRNA [4] = assay: iNOS mRNA expression in LPS-stimulated RAW 264.7 cells (RT-PCR); type: cell-based, murine; conditions: Mus musculus, RAW264.7, read-out: decrease of iNOS mRNA
Method: Doxycycline and minocycline may suppress iNOS before the synthesis of the enzyme, leading to inhibition of iNOS protein expression, specific activity and accumulation of nitrite. […] Therefore, to determine the level at which tetracycline inhibited iNOS protein expression, RAW 264.7 cells treated with LPS in the presence or absence of doxycycline and minocycline were analyzed for iNOS mRNA by semi-quantitative RT-PCR.
The presence of iNOS and β-actin mRNA in cells was analyzed by reverse transcription (RT) of total RNA followed by PCR amplification of the cDNA. The sense and antisense oligonucleotides for iNOS were, respectively, 5'-ACGGAGAAGCTTAGATCTGGAGCAGAAGTG-3'(142 to 171) (SEQ ID NO:1) and 5'-CTGCAGGTTGGACCACTGGATCCTGCCGAT-3' (767 to 796) (SEQ ID NO:2). The sense and antisense primers for β-actin were 5'-TCCTTCGTTGCCGGTCCACA-3' (44 to 63) (SEQ ID NO:3) and 5'-CGTCTCCGGAGTCCATCACA-3' (534 to 552) (SEQ ID NO:4), respectively. The predicted PCR product of the iNOS cDNA was 654 bp; that of the β-actin cDNA was 508 bp. The polymerase chain reaction was carried out in an automated DNA thermal cycle (Perkin-Elmer Cetus, Norwalk, Conn.). The total RNA was extracted using TRI-Reagent (MRC Inc., Cincinnati, Ohio). The cDNA was prepared from equal amounts (1-5 μg) of total RNA using a SuperScript™ RNase H Reverse Transcriptase (Gibco BRL, Gaithersburg, Md.). An equal amount of the cDNA was used to amplify the mRNA by PCR. PCR amplification was performed in 50 μL solution containing 1.5 mM MgCl2, 500 ng iNOS primer, 100 ng β-actin primer, 0.2 mM of each dNTP, 2.5 units of Taq DNA polymerase (Gibco). The cycle conditions for amplification of cDNA were 1 min at 94° C., 1-2 min at 55° C. and 3 min at 72° C. for 30 cycles for both iNOS and β-actin. The PCR product was analyzed by electrophoresis on 1.0% agarose gels.
RT-PCR analysis of iNOS and βactin mRNA expression in RAW 264.7 cells was carried out after stimulation with LPS±doxycycline or minocycline. […] Equal amounts of RNA were analyzed for iNOS and β-actin expression as described above.

iNOS mRNA [5] = assay: iNOS mRNA expression in LPS-stimulated RAW cells (Northern blot); type: cell-based, murine; conditions: Mus musculus
Method: Northern blot analysis of the iNOS MRNA expressed by the cells was then carried out to evaluate precisely the effect of iNOS expression in the presence of doxycycline and minocycline. The probes again were the iNOS and β-actin CDNA probes described above.
In this case, total RNA was isolated using TRI Reagent (MRC Inc., Cincinnati, Ohio). […] Briefly, 30 μg of RNA was subjected to electrophoresis in 1% agarose formaldehyde gel. The gel was then transferred via capillary action onto a nylon membrane (Zeta Probe, Bio-Rad Laboratories, Melville, N.Y.). The membrane was hybridized with [^32 P]-dCTP-labeled iNOS CDNA (4 kb SmaI fragment), a kind gift from Dr. James Cunningham (Harvard Medical School, Boston, Mass.). After hybridization, the blot was exposed to Kodak X-ray film (Kodak, Rochester, N.Y.) for 24-48 h with intensifying screens at -70° C. The β-actin probe was purchased from ClonTech (Palo Alto, Calif.) and probed as described above. Quantitation of the intensity of the iNOS/β-actin bands was performed using a phosphoimager (Molecular Dynamics, Sunnyvale, Calif.).

[6] = tested on: iNOS expression in macrophages; conditions: Nathan et al. 1994, Vodovotz et al. 1993; cited from earlier work

CC1(O)c2cccc(O)c2C(=O)C2=C(O)C3(O)C(=O)C(C(N)=O)=C(O)CC3CC21 (centres unmarked) [CMT-1, 4-dedimethylaminotetracycline]
NO production (% of control) (renal mesangial cells; 10 μg/mL, after 48 hr): ~ 60 % of control | anti-collagenase activity (collagenase): modest anti-collagenase activity

NC(=O)C1=C(O)C2(O)C(=O)C3=C(O)c4c(O)cccc4CC3CC2CC1=O (centres unmarked) [CMT-3, 6-demethyl-6-deoxy-4-dedimethylaminotetracycline]
inhibition of NO production, time course (renal mesangial cells): time-dependent inhibition of NO production | Emax at 5 µg/mL (renal mesangial cells): > 80% | anti-collagenase activity (collagenase): high level of anti-collagenase activity

C[C@H]1c2cccc(O)c2C(O)=C2C(=O)[C@]3(O)C(O)=C(C(N)=O)C(=O)C[C@@H]3[C@@H](O)[C@@H]21 [CMT-8, 6-α-deoxy-5-hydroxy-4-dedimethylaminotetracycline]
inhibition of NO production, time course (renal mesangial cells): time-dependent inhibition of NO production | Emax at 5 µg/mL (renal mesangial cells): > 80% | anti-collagenase activity (collagenase): high level of anti-collagenase activity

CN=C(N)NCCC[C@H](N)C(=O)O [L-NMMA]
inhibition of iNOS activity (iNOS [1]; 75 μM): 64% | inhibition of NOS activity (NOS): > 95%

CC(=O)n1ccnc1 [N-acetyl imidazole, N-acetylimidazole]
inhibition of iNOS catalytic activity (iNOS [2]): inhibit iNOS catalytic activity in vitro

CC(=O)Oc1ccccc1C(=O)O [aspirin]
inhibition of iNOS catalytic activity (iNOS [2]): inhibit iNOS catalytic activity in vitro

C[C@@H]1C[C@H]2[C@@H]3CCC4=CC(=O)C=C[C@]4(C)[C@@]3(F)[C@@H](O)C[C@]2(C)[C@@]1(O)C(=O)CO [dexamethasone]
suppression of IL-1β-induced iNOS expression [3]: acts at multiple levels (including transcription of iNOS) to suppress IL-1β-induced iNOS expression

C[C@]12CCC(=O)C=C1CC[C@@H]1[C@@H]2[C@@H](O)C[C@@]2(C)[C@H]1CC[C@]2(O)C(=O)CO [hydrocortisone]
inhibition of iNOS activity (iNOS [1]; 10 μM): 60% | inhibition of iNOS protein expression (133 kD iNOS): 43% | inhibition at 10 µM (iNOS mRNA [4]): 50 to 100% | inhibition at 10 µM (iNOS mRNA [5]; read-out: inhibition of iNOS mRNA expression, 10 μM, doxycycline experiment (FIG. 6C)): 73% | inhibition at 10 µM (iNOS mRNA [5]; read-out: inhibition of iNOS mRNA expression, 10 μM, minocycline experiment (FIG. 6D)): 76% | suppression of iNOS expression [6]: suppress iNOS expression by decreasing mRNA expression

TGF-β1: suppresses iNOS expression in macrophages
suppression of iNOS expression [6]: suppress iNOS expression by decreasing mRNA expression
